Reference: ChEMBL document CHEMBL3044807, “Synthesis and biological evaluation of new ozonides with improved plant growth regulatory activity” (2009)

Assays:
Type in all cases: functional
Cucumis sativus [1] = test: Phytotoxic activity against Cucumis sativus (cucumber) seedlings assessed as germination at 5x10'-4 mol/l at 28 +/-1 degC after 48 hr by acid-washed sand based radicle elongation assay (reference value: 100%)
Cucumis sativus [2] = test: Phytotoxic activity against Cucumis sativus (cucumber) assessed as root growth inhibition at 5.0 x 10^-4 mol/l measured 15 days after seed sowing under greenhouse trials (reference value: 0.0%); settings: 360 h
Urochloa decumbens [3] = test: Phytotoxic activity against Urochloa decumbens assessed as weight of aerial parts at 5.0 x 10^-4 mol/l measured 21 days after seed sowing under greenhouse trials (reference value: 22.0 mg)
Ipomoea grandifolia [4] = test: Phytotoxic activity against Ipomoea grandifolia assessed as aerial part growth inhibition at 5.0 x 10^-4 mol/l measured 21 days after seed sowing under greenhouse trials (reference value: 0.0%); settings: 504 h
Ipomoea grandifolia [5] = test: Phytotoxic activity against Ipomoea grandifolia assessed as root growth inhibition at 5.0 x 10^-4 mol/l measured 21 days after seed sowing under greenhouse trials (reference value: 0.0%); settings: 504 h
Sorghum bicolor [6] = test: Phytotoxic activity against Sorghum bicolor assessed as weight of roots at 5.0 x 10^-4 mol/l measured 15 days after seed sowing under greenhouse trials (reference value: 14.0 mg)
Urochloa decumbens [7] = test: Phytotoxic activity against Urochloa decumbens assessed as weight of root at 5.0 x 10^-4 mol/l measured 21 days after seed sowing under greenhouse trials (reference value: 21.2 mg)
Cucumis sativus [8] = test: Phytotoxic activity against Cucumis sativus (cucumber) seedlings assessed as inhibition of radicle growth at 5x10'-4 mol/l at 28 +/-1 degC after 48 hr by acid-washed sand based radicle elongation assay (reference value: 0.0%)
Sorghum bicolor [9] = test: Phytotoxic activity against Sorghum bicolor seedlings assessed as germination at 5x10'-4 mol/l at 28 +/-1 degC after 48 hr by acid-washed sand based radicle elongation assay (reference value: 100%)
Sorghum bicolor [10] = test: Phytotoxic activity against Sorghum bicolor seedlings assessed as radicle length at 5x10'-4 mol/l at 28 +/-1 degC after 48 hr by acid-washed sand based radicle elongation assay (reference value: 5.1 cm)
Sorghum bicolor [11] = test: Phytotoxic activity against Sorghum bicolor seedlings assessed as inhibition of radicle growth at 5x10'-4 mol/l at 28 +/-1 degC after 48 hr by acid-washed sand based radicle elongation assay (reference value: 0.0%)
Cucumis sativus [12] = test: Phytotoxic activity against Cucumis sativus (cucumber) assessed as aerial part growth inhibition at 5.0 x 10^-4 mol/l measured 15 days after seed sowing under greenhouse trials (reference value: 0.0%); settings: 360 h
Cucumis sativus [13] = test: Phytotoxic activity against Cucumis sativus (cucumber) assessed as weight of roots at 5.0 x 10^-4 mol/l measured 15 days after seed sowing under greenhouse trials (reference value: 31.0 mg)
Urochloa decumbens [14] = test: Phytotoxic activity against Urochloa decumbens assessed as aerial part growth inhibition at 5.0 x 10^-4 mol/l measured 21 days after seed sowing under greenhouse trials (reference value: 0.0%); settings: 504 h
Cucumis sativus [15] = test: Phytotoxic activity against Cucumis sativus (cucumber) assessed as weight of aerial parts at 5.0 x 10^-4 mol/l measured 15 days after seed sowing under greenhouse trials (reference value: 47.0 mg)
Cucumis sativus [16] = test: Phytotoxic activity against Cucumis sativus (cucumber) seedlings assessed as radicle length at 5x10'-4 mol/l at 28 +/-1 degC after 48 hr by acid-washed sand based radicle elongation assay (reference value: 4.8 cm)
Ipomoea grandifolia [17] = test: Phytotoxic activity against Ipomoea grandifolia assessed as weight of root at 5.0 x 10^-4 mol/l measured 21 days after seed sowing under greenhouse trials (reference value: 18.4 mg)
Urochloa decumbens [18] = test: Phytotoxic activity against Urochloa decumbens assessed as root growth inhibition at 5.0 x 10^-4 mol/l measured 21 days after seed sowing under greenhouse trials (reference value: 0.0%); settings: 504 h
Sorghum bicolor [19] = test: Phytotoxic activity against Sorghum bicolor assessed as weight of aerial parts at 5.0 x 10^-4 mol/l measured 15 days after seed sowing under greenhouse trials (reference value: 19.0 mg)
Sorghum bicolor [20] = test: Phytotoxic activity against Sorghum bicolor assessed as aerial part growth inhibition at 5.0 x 10^-4 mol/l measured 15 days after seed sowing under greenhouse trials (reference value: 0.0%); settings: 360 h
Sorghum bicolor [21] = test: Phytotoxic activity against Sorghum bicolor assessed as root growth inhibition at 5.0 x 10^-4 mol/l measured 15 days after seed sowing under greenhouse trials (reference value: 0.0%); settings: 360 h
Ipomoea grandifolia [22] = test: Phytotoxic activity against Ipomoea grandifolia assessed as weight of aerial parts at 5.0 x 10^-4 mol/l measured 21 days after seed sowing under greenhouse trials (reference value: 17.8 mg)

Question: What does the source list for CC[C@@H]1C(=O)[C@@H](CC)[C@@]23CC(C)CCC2=C(C)[C@H]1O3 (stereo partly specified)?
Answer: germination % at 500 µM (Cucumis sativus [1]): 96%; inhibition at 500 µM (Cucumis sativus [2]): 79.7%; Activity (Urochloa decumbens [3]): 5.4 mg; inhibition at 500 µM (Ipomoea grandifolia [4]): 61.8%; inhibition at 500 µM (Ipomoea grandifolia [5]): 85.3%; Activity (Sorghum bicolor [6]): 12.7 mg; Activity (Urochloa decumbens [7]): 3.4 mg; inhibition at 500 µM (Cucumis sativus [8]): 62.9%; germination % at 500 µM (Sorghum bicolor [9]): 93%; Activity (Sorghum bicolor [10]): 1.7 cm; inhibition at 500 µM (Sorghum bicolor [11]): 68%; inhibition at 500 µM (Cucumis sativus [12]): 34.6%; Activity (Cucumis sativus [13]): 6.3 mg; inhibition at 500 µM (Urochloa decumbens [14]): 75.3%; Activity (Cucumis sativus [15]): 30.7 mg; Activity (Cucumis sativus [16]): 1.8 cm; Activity (Ipomoea grandifolia [17]): 2.4 mg; inhibition at 500 µM (Urochloa decumbens [18]): 85.5%; Activity (Sorghum bicolor [19]): 13.7 mg; inhibition at 500 µM (Sorghum bicolor [20]): 28.1%; inhibition at 500 µM (Sorghum bicolor [21]): 9.3%; Activity (Ipomoea grandifolia [22]): 6.9 mg

Question: With CC12OC(C)(C3OOC1O3)C1CCCCC2C1=O (mixture of isomers) as the compound, how does the germination % at 500 µM (Cucumis sativus [1]) read?
Answer: 100%

Question: And the inhibition at 500 µM (Cucumis sativus [2])?
Answer: 79.7%

Question: And the Activity (Urochloa decumbens [3])?
Answer: 4.4 mg

Question: What about the inhibition at 500 µM (Ipomoea grandifolia [4]) of the same compound?
Answer: 65.4%

Question: And the inhibition at 500 µM (Ipomoea grandifolia [5])?
Answer: 64.6%

Question: And the Activity (Sorghum bicolor [6])?
Answer: 11.5 mg

Question: And the Activity (Urochloa decumbens [7])?
Answer: 3.6 mg

Question: What about the inhibition at 500 µM (Cucumis sativus [8]) of the same compound?
Answer: 69.1%

Question: What about the germination % at 500 µM (Sorghum bicolor [9]) of the same compound?
Answer: 100%

Question: What about the Activity (Sorghum bicolor [10]) of the same compound?
Answer: 2.7 cm

Question: What about the inhibition at 500 µM (Sorghum bicolor [11]) of the same compound?
Answer: 47.1%

Question: What about the inhibition at 500 µM (Cucumis sativus [12]) of the same compound?
Answer: 43.8%

Question: What about the Activity (Cucumis sativus [13]) of the same compound?
Answer: 6.3 mg

Question: What about the inhibition at 500 µM (Urochloa decumbens [14]) of the same compound?
Answer: 79.7%

Question: What about the Activity (Cucumis sativus [15]) of the same compound?
Answer: 26.4 mg

Question: What about the Activity (Cucumis sativus [16]) of the same compound?
Answer: 1.5 cm

Question: And the Activity (Ipomoea grandifolia [17])?
Answer: 5.7 mg

Question: What about the inhibition at 500 µM (Urochloa decumbens [18]) of the same compound?
Answer: 83%

Question: And the Activity (Sorghum bicolor [19])?
Answer: 8.8 mg

Question: And the inhibition at 500 µM (Sorghum bicolor [20])?
Answer: 53.9%

Question: And the inhibition at 500 µM (Sorghum bicolor [21])?
Answer: 18.2%

Question: And the Activity (Ipomoea grandifolia [22])?
Answer: 6.2 mg

Question: What does the source list for O=C1C2CCCCC1C1OC2C2OOC1O2?
Answer: germination % at 500 µM (Cucumis sativus [1]): 100%; inhibition at 500 µM (Cucumis sativus [2]): 77.8%; Activity (Urochloa decumbens [3]): 12.3 mg; inhibition at 500 µM (Ipomoea grandifolia [4]): 46.5%; inhibition at 500 µM (Ipomoea grandifolia [5]): 53.6%; Activity (Sorghum bicolor [6]): 10.3 mg; Activity (Urochloa decumbens [7]): 8.3 mg; inhibition at 500 µM (Cucumis sativus [8]): 68.5%; germination % at 500 µM (Sorghum bicolor [9]): 96%; Activity (Sorghum bicolor [10]): 2.1 cm; inhibition at 500 µM (Sorghum bicolor [11]): 59.7%; inhibition at 500 µM (Cucumis sativus [12]): 27.5%; Activity (Cucumis sativus [13]): 6.9 mg; inhibition at 500 µM (Urochloa decumbens [14]): 44.1%; Activity (Cucumis sativus [15]): 34.1 mg; Activity (Cucumis sativus [16]): 1.5 cm; Activity (Ipomoea grandifolia [17]): 7.4 mg; inhibition at 500 µM (Urochloa decumbens [18]): 60.2%; Activity (Sorghum bicolor [19]): 10.4 mg; inhibition at 500 µM (Sorghum bicolor [20]): 45.1%; inhibition at 500 µM (Sorghum bicolor [21]): 26.4%; Activity (Ipomoea grandifolia [22]): 9.6 mg
